Reference: publication PMC10574143, “Exploring the Solubility Limits of Edaravone in Neat Solvents and Binary Mixtures: Experimental and Machine Learning Study” (Molecules, 2023)

Assay: shake-flask solubility measurement, spectrophotometric at 243 nm
Format: physicochemical
Procedure: To assess the solubility of EDA in various solvents, excess amounts of EDA were added to test tubes containing either a specific solvent or a binary mixture containing the organic solvent and water in different molar proportions. The saturated solutions were then placed in an Orbital Shaker Incubator ES-20/60 from Biosan (Riga, Latvia) and incubated at various temperatures for 24 h. Four temperature points, ranging from 25 °C to 40 °C with 5 °C intervals, were used for the incubation. The incubator temperature was precisely adjusted to within 0.1 degrees, with a variance of 0.5 degrees during the 24 h cycle. The samples were simultaneously mixed at 60 rev/min. Next, the samples were filtered using syringes equipped with PTFE filters with a pore size of 0.22 µm. To prevent precipitation due to temperature differences between the solutions and instruments, all test tubes, pipette tips, syringes, and filters were preheated. They were placed in the same incubator as the samples and heated to the same temperature before handling. This step was particularly crucial when dealing with elevated temperatures, as the temperature difference could be substantial. After filtration, small quantities of the obtained filtrate were diluted in test tubes containing methanol and measured spectrophotometrically. The density of each solution was measured by weighing a 1 mL volume in 10 mL volumetric flasks using an Eppendorf Reference 2 pipette (Hamburg, Germany) with a systematic error of 6 μL. The RADWAG AS 110 R2.PLUS analytical balance (Radom, Poland) with a precision of 0.1 mg was also used for this purpose. Solubility determination was conducted using the A360 spectrophotometer from AOE Instruments (Shanghai, China). Spectra were recorded in the wavelength range of 190 nm to 400 nm with a resolution of 1 nm. Methanol was used for both diluting the samples and the initial calibration of the spectrophotometer. The analytical wavelength was set at 243 nm, and the absorbance at this wavelength was used to determine the EDA concentration in the samples and subsequently calculate its mole fractions. To ensure accuracy, three separate measurements were performed, and the resulting values were averaged. The calibration curve for EDA was prepared by diluting an initial stock solution and measuring the resulting solutions’ spectrophotometric properties at decreased concentrations. The molar concentrations of the measured solutions ranged from 0.0023 to 0.023 mg/mL. The relationship between the absorbance values at 243 nm and the solution concentration was described by a linear equation A = 85.603 × C − 0.0179, with high linearity denoted by the determination coefficient R^2 equal to 0.9993.

Edaravone solubility (xEDA) (BG-water, x2*=0.0 (water), 25 °C): 0.02 (<±0.01) xEDA, ×102
Edaravone solubility (xEDA) (BG-water, x2*=0.1, 25 °C): 0.12 (±0.02) xEDA, ×102
Edaravone solubility (xEDA) (BG-water, x2*=0.2, 25 °C): 0.29 (±0.04) xEDA, ×102
Edaravone solubility (xEDA) (BG-water, x2*=0.3, 25 °C): 0.53 (±0.03) xEDA, ×102
Edaravone solubility (xEDA) (BG-water, x2*=0.4, 25 °C): 0.83 (±0.04) xEDA, ×102
Edaravone solubility (xEDA) (BG-water, x2*=0.5, 25 °C): 1.07 (±0.05) xEDA, ×102
Edaravone solubility (xEDA) (BG-water, x2*=0.6, 25 °C): 1.27 (±0.03) xEDA, ×102
Edaravone solubility (xEDA) (BG-water, x2*=0.7, 25 °C): 1.42 (±0.05) xEDA, ×102
Edaravone solubility (xEDA) (BG-water, x2*=0.8, 25 °C): 1.50 (±0.03) xEDA, ×102
Edaravone solubility (xEDA) (BG-water, x2*=0.9, 25 °C): 1.51 (±0.04) xEDA, ×102
Edaravone solubility (xEDA) (DG-water, x2*=0.0 (water), 25 °C): 0.02 (<±0.01) xEDA, ×102
Edaravone solubility (xEDA) (DG-water, x2*=0.1, 25 °C): 0.09 (±0.01) xEDA, ×102
Edaravone solubility (xEDA) (DG-water, x2*=0.2, 25 °C): 0.25 (±0.01) xEDA, ×102
Edaravone solubility (xEDA) (DG-water, x2*=0.3, 25 °C): 0.48 (±0.04) xEDA, ×102
Edaravone solubility (xEDA) (DG-water, x2*=0.4, 25 °C): 0.74 (±0.03) xEDA, ×102
Edaravone solubility (xEDA) (DG-water, x2*=0.5, 25 °C): 1.09 (±0.01) xEDA, ×102
Edaravone solubility (xEDA) (DG-water, x2*=0.6, 25 °C): 1.39 (±0.02) xEDA, ×102
Edaravone solubility (xEDA) (DG-water, x2*=0.7, 25 °C): 1.65 (±0.05) xEDA, ×102
Edaravone solubility (xEDA) (DG-water, x2*=0.8, 25 °C): 1.87 (±0.04) xEDA, ×102
Edaravone solubility (xEDA) (DG-water, x2*=0.9, 25 °C): 1.98 (±0.02) xEDA, ×102
Edaravone solubility (xEDA) (PG-water, x2*=0.0 (water), 25 °C): 0.02 (<±0.01) xEDA, ×102
Edaravone solubility (xEDA) (PG-water, x2*=0.1, 25 °C): 0.06 (±0.01) xEDA, ×102
Edaravone solubility (xEDA) (PG-water, x2*=0.2, 25 °C): 0.15 (±0.01) xEDA, ×102
Edaravone solubility (xEDA) (PG-water, x2*=0.3, 25 °C): 0.26 (±0.02) xEDA, ×102
Edaravone solubility (xEDA) (PG-water, x2*=0.4, 25 °C): 0.40 (±0.02) xEDA, ×102
Edaravone solubility (xEDA) (PG-water, x2*=0.5, 25 °C): 0.54 (±0.02) xEDA, ×102
Edaravone solubility (xEDA) (PG-water, x2*=0.6, 25 °C): 0.71 (±0.02) xEDA, ×102
Edaravone solubility (xEDA) (PG-water, x2*=0.7, 25 °C): 0.86 (±0.02) xEDA, ×102
Edaravone solubility (xEDA) (PG-water, x2*=0.8, 25 °C): 0.99 (±0.02) xEDA, ×102
Edaravone solubility (xEDA) (PG-water, x2*=0.9, 25 °C): 1.00 (±0.02) xEDA, ×102
Edaravone solubility (xEDA) (TG-water, x2*=0.0 (water), 25 °C): 0.02 (<±0.01) xEDA, ×102
Edaravone solubility (xEDA) (TG-water, x2*=0.1, 25 °C): 0.31 (±0.04) xEDA, ×102
Edaravone solubility (xEDA) (TG-water, x2*=0.2, 25 °C): 0.78 (±0.03) xEDA, ×102
Edaravone solubility (xEDA) (TG-water, x2*=0.3, 25 °C): 1.28 (±0.07) xEDA, ×102
Edaravone solubility (xEDA) (TG-water, x2*=0.4, 25 °C): 1.72 (±0.06) xEDA, ×102
Edaravone solubility (xEDA) (TG-water, x2*=0.5, 25 °C): 2.11 (±0.08) xEDA, ×102
Edaravone solubility (xEDA) (TG-water, x2*=0.6, 25 °C): 2.54 (±0.08) xEDA, ×102
Edaravone solubility (xEDA) (TG-water, x2*=0.7, 25 °C): 3.03 (±0.09) xEDA, ×102
Edaravone solubility (xEDA) (TG-water, x2*=0.8, 25 °C): 3.51 (±0.09) xEDA, ×102
Edaravone solubility (xEDA) (TG-water, x2*=0.9, 25 °C): 3.58 (±0.06) xEDA, ×102
mole fraction solubility xEDA (TG-water, x2*=0.9, 25 °C): 3.58 × 10^−2 mole fraction
cosolvency effect in aqueous binary solvent (diethylene glycol (DG)-water, 25 °C): no cosolvency effect was observed
Edaravone solubility (xEDA) (neat 1,2-propanediol (PG), x2*=1.0, 25 °C): 0.85 (±0.01) xEDA, ×102
Edaravone solubility (xEDA) (neat 1,3-butanediol (BG), x2*=1.0, 25 °C): 1.43 (±0.04) xEDA, ×102
Edaravone solubility (xEDA) (neat 2,4-dimethylphenol (DMP), 25 °C): 1.88 (±0.05) xEDA, ×102
Edaravone solubility (xEDA) (neat 2,4-dimethylphenol (DMP), 30 °C): 2.82 (±0.58) xEDA, ×102
Edaravone solubility (xEDA) (neat 2,4-dimethylphenol (DMP), 35 °C): 4.08 (±0.21) xEDA, ×102
Edaravone solubility (xEDA) (neat 2,4-dimethylphenol (DMP), 40 °C): 5.65 (±0.25) xEDA, ×102
Edaravone solubility (xEDA) (neat 4-formylmorpholine (4FM), 25 °C): 1.11 (±0.01) xEDA, ×102
Edaravone solubility (xEDA) (neat 4-formylmorpholine (4FM), 30 °C): 1.46 (±0.08) xEDA, ×102
Edaravone solubility (xEDA) (neat 4-formylmorpholine (4FM), 35 °C): 1.76 (±0.19) xEDA, ×102
Edaravone solubility (xEDA) (neat 4-formylmorpholine (4FM), 40 °C): 2.17 (±0.01) xEDA, ×102
Edaravone solubility (xEDA) (neat DMSO, 25 °C): 7.58 (±0.32) xEDA, ×102
Edaravone solubility (xEDA) (neat DMSO, 30 °C): 12.25 (±0.16) xEDA, ×102
Edaravone solubility (xEDA) (neat DMSO, 35 °C): 20.1 (±0.15) xEDA, ×102
Edaravone solubility (xEDA) (neat DMSO, 40 °C): 29.81 (±1.14) xEDA, ×102
mole fraction solubility xEDA (neat DMSO, 40 °C): 29.81 × 10^−2 mole fraction
Edaravone solubility (xEDA) (neat NMP, 25 °C): 3.83 (±0.01) xEDA, ×102
Edaravone solubility (xEDA) (neat NMP, 30 °C): 4.96 (±0.49) xEDA, ×102
Edaravone solubility (xEDA) (neat NMP, 35 °C): 6.94 (±0.19) xEDA, ×102
Edaravone solubility (xEDA) (neat NMP, 40 °C): 8.61 (±0.21) xEDA, ×102
mole fraction solubility xEDA (neat TEG, 25 °C): 4.63 × 10^−2 mole fraction
mole fraction solubility xEDA (neat TEG, 40 °C): 21.21 × 10^−2 mole fraction
Edaravone solubility (xEDA) (neat diethylene glycol (DG), x2*=1.0, 25 °C): 2.04 (±0.06) xEDA, ×102
Edaravone solubility (xEDA) (neat diglyme (DIG), 25 °C): 2.05 (±0.02) xEDA, ×102
Edaravone solubility (xEDA) (neat diglyme (DIG), 30 °C): 2.69 (±0.04) xEDA, ×102
Edaravone solubility (xEDA) (neat diglyme (DIG), 35 °C): 3.33 (±0.11) xEDA, ×102
Edaravone solubility (xEDA) (neat diglyme (DIG), 40 °C): 4.16 (±0.06) xEDA, ×102
Edaravone solubility (xEDA) (neat tetraglyme (TEG), 25 °C): 4.63 (±0.05) xEDA, ×102
Edaravone solubility (xEDA) (neat tetraglyme (TEG), 30 °C): 8.63 (±0.22) xEDA, ×102
Edaravone solubility (xEDA) (neat tetraglyme (TEG), 35 °C): 13.05 (±0.19) xEDA, ×102
Edaravone solubility (xEDA) (neat tetraglyme (TEG), 40 °C): 21.21 (±0.64) xEDA, ×102
mole fraction solubility xEDA (neat triethylene glycol (TG), 25 °C): 2.75 × 10^−2 mole fraction
Edaravone solubility (xEDA) (neat triethylene glycol (TG), x2*=1.0, 25 °C): 2.75 (±0.08) xEDA, ×102
Edaravone solubility (xEDA) (neat triglyme (TIG), 25 °C): 1.53 (±0.07) xEDA, ×102
Edaravone solubility (xEDA) (neat triglyme (TIG), 30 °C): 2.20 (±0.04) xEDA, ×102
Edaravone solubility (xEDA) (neat triglyme (TIG), 35 °C): 3.11 (±0.17) xEDA, ×102
Edaravone solubility (xEDA) (neat triglyme (TIG), 40 °C): 4.57 (±0.39) xEDA, ×102
Structure (SMILES): CC1=NN(c2ccccc2)C(=O)C1 [Edaravone, 5-methyl-2-phenyl-4H-pyrazol-3-one]
solubility at x2* = 0.9 versus pure solvent (1,2-propanediol (PG)-water, 25 °C): higher solubility compared to pure solvents
solubility at x2* = 0.9 versus pure solvent (1,3-butanediol (BG)-water, 25 °C): higher solubility compared to pure solvents
